Values quoted from earlier work as cited in patent EP0209897A2, “Peptide enzyme inhibitors” (Merck & Co., Inc., priority 1985, dated 1987).

System: hog renin
Settings: after the injection of hog renin into nephrectomized rats; Gross et al., Science 175:656, 1971

Pepstatin
blood pressure in vivo: reduce blood pressure
